Measured values: US8853125B2, “Pyrazole compounds for controlling invertebrate pests” (BASF SE, priority 2008, dated 2014)

Legend:
Type in all cases: in vivo
[1] = tested on: Cotton Aphid (aphis gossypii, Mixed Life Stages); assay: Cotton aphid, method a (cotyledon dip); conditions: 120 h, read-out: mortality in comparison with untreated controls
Source text: (§1) The active compounds were formulated in 50:50 (vol:vol) acetone:water and 100 ppm Kinetica™ surfactant.
Cotton plants at the cotyledon stage (one plant per pot) were infested by placing a heavily infested leaf from the main colony on top of each cotyledon. The aphids were allowed to transfer to the host plant overnight, and the leaf used to transfer the aphids was removed. The cotyledons were dipped in the test solution and allowed to dry. After 5 days, mortality counts were made.

[2] = tested on: Green Peach Aphid (Myzus persicae, Mixed Life Stages); assay: Green peach aphid, method a (leaf dip, pepper plants); conditions: foliar, 120 h, read-out: mortality in comparison with untreated controls
Source text: as §1
Pepper plants in the 2nd leaf-pair stage (variety ‘California Wonder’) were infested with approximately 40 laboratory-reared aphids by placing infested leaf sections on top of the test plants. The leaf sections were removed after 24 hr. The leaves of the intact plants were dipped into gradient solutions of the test compound and allowed to dry. Test plants were maintained under fluorescent light (24 hour photoperiod) at about 25° C. and 20-40% relative humidity. Aphid mortality on the treated plants, relative to mortality on check plants, was determined after 5 days.

[3] = tested on: Cowpea Aphid (aphis craccivora); assay: Cowpea aphid, sprayed potted cowpea plants; conditions: read-out: mortality in comparison with untreated controls
Procedure: The active compounds were formulated in 50:50 (vol:vol) acetone:water. The test solution was prepared at the day of use.
Potted cowpea plants colonized with 100-150 aphids of various stages were sprayed after the pest population had been recorded. Population reduction was assessed after 24, 72, and 120 hours.

[4] = tested on: Vetch Aphid (Megoura viciae); assay: Vetch aphid, bean leaf disks in microtiterplates; conditions: foliar, 144 h
Procedure: The active compounds were formulated in 1:3 (vol:vol) DMSO:water with different concentrations of formulated compounds.
Bean leaf disks were placed into microtiterplates filled with 0.8% agar-agar and 2.5 ppm OPUS™. The leaf disks were sprayed with 2.5 μl of the test solution and 5 to 8 adult aphids were placed into the microtiterplates which were then closed and kept at 23±1° C. and 50±5% relative humidity under fluorescent light for 6 days. Mortality was assessed on the basis of vital, reproduced aphids. Aphid mortality and fecundity was then visually assessed.

CN1CCn2ncc(C(=O)Nc3cccnc3)c2C1 [Compound 13, N-(pyridine-3-yl)-5-methyl-4,5,6,7-tetrahydropyrazolo-[1,5-a]pyrazine-3-carboxamide]
mortality at 300 ppm [1]: ≥ 75% | mortality at 300 ppm [2]: ≥ 75% | mortality at 300 ppm [3]: ≥ 75% | mortality at 2500 µg/mL [4]: ≥ 90%
